# Patent publication US9914730B2, “Azaquinazoline inhibitors of Atypical protein Kinase C” (Ignyta, Inc., priority 2012, dated 2018)
# Target: T1, full-length human PKCι (Homo sapiens, UniProt P41743)
# T1 construct: Recombinant, full-length human PKCι expressed in Sf21 insect cells is also commercially available; purchased; host or cells: Sf21 insect cells
# T1 sequence (P41743 1-596): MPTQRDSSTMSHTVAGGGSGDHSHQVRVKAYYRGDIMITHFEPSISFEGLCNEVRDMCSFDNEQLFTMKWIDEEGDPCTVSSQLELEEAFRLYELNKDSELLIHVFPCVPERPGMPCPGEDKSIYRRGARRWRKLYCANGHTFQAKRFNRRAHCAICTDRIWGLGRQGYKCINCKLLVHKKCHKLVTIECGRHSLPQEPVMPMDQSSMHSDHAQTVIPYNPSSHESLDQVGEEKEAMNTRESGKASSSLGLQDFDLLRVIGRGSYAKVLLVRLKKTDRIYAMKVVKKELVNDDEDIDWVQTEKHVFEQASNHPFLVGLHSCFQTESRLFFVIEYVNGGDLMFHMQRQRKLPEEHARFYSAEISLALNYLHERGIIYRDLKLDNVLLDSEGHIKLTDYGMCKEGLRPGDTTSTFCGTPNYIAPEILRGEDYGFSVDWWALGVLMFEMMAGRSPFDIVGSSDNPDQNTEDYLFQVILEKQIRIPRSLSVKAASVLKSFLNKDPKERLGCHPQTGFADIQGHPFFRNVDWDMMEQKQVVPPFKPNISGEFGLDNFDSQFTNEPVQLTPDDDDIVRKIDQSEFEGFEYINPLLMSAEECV
# Test: PKCι IC50 IMAP assay, full-length PKCι at 150 μM ATP
# Type: biochemical
# Conditions: read-out: IC50 in IMAP assay against full length PKCi at 150 μM ATP
# Procedure, shortened: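 Recombinant full-length human PKCι (Sf21-expressed, typically 15 pM) phosphorylated 100 nM 5FAM-labelled PKCε pseudosubstrate-derived peptide with 150 μM ATP (5× KM^APP) in 18 mM tris-HCl pH7.5, 9 mM MgCl2, EGTA, DTT, 4% DMSO. After 60 min at room temperature, IMAP binding reagent was added for 2 h and fluorescence polarisation read.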
row,Compound,IC50 [nM]
1,"COc1cncc2nc(-c3ccnc(Nc4cc(C#N)ccn4)c3)nc(N3CCC[C@@H](O)C3)c12 [Example 429, 2-{4-[4-((R)-3-Hydroxy-piperidin-1-yl)-5-methoxy-pyrido[3,4-d]pyrimidin-2-yl]-pyridin-2-ylamino}-isonicotinonitrile]",1000 to 10000
2,"COc1cncc2nc(-c3ccnc(Nc4ccccc4)c3)nc(NC[C@H]3CCCN3)c12 [Example 431, [5-Methoxy-2-(2-phenylamino-pyridin-4-yl)-pyrido[3,4-d]pyrimidin-4-yl]-(R)-1-pyrrolidin-2-ylmethyl-amine]",100 to 1000
3,"COc1cncc2nc(-c3ccnc(Nc4ccccc4)c3)nc(N3CCN(CCO)CC3)c12 [Example 432, 2-{4-[5-Methoxy-2-(2-phenylamino-pyridin-4-yl)-pyrido[3,4-d]pyrimidin-4-yl]-piperazin-1-yl}-ethanol]",100 to 1000
4,"COc1cncc2nc(-c3ccnc(Nc4ccccc4)c3)nc(N3CCN[C@@H](CO)C3)c12 [Example 434, {(R)-4-[5-Methoxy-2-(2-phenylamino-pyridin-4-yl)-pyrido[3,4-d]pyrimidin-4-yl]-piperazin-2-yl}-methanol]",< 100
5,"COc1cncc2nc(-c3ccnc(Nc4cccc(F)c4F)c3)nc(N3CCNCC3)c12 [Example 439, (2,3-Difluoro-phenyl)-[4-(5-methoxy-4-piperazin-1-yl-pyrido[3,4-d]pyrimidin-2-yl)-pyridin-2-yl]-amine]",< 100
6,"COc1cncc2nc(-c3ccnc(Nc4c(F)cc(F)cc4F)c3)nc(N3CCNCC3)c12 [Example 441, [4-(5-Methoxy-4-piperazin-1-yl-pyrido[3,4-d]pyrimidin-2-yl)-pyridin-2-yl]-(2,4,6-trifluoro-phenyl)-amine]",< 100
7,"COc1cncc2nc(-c3ccnc(Nc4ccccc4)c3)nc(N3CCC(O)C(CO)C3)c12 (stereo not shown) [Example 443, 3-Hydroxymethyl-1-[5-methoxy-2-(2-phenylamino-pyridin-4-yl)-pyrido[3,4-d]pyrimidin-4-yl]-piperidin-4-ol]",1000 to 10000
8,"COc1cncc2nc(-c3ccnc(Nc4c(F)ccc(F)c4F)c3)nc(N3CCNCC3)c12 [Example 444, [4-(5-Methoxy-4-piperazin-1-yl-pyrido[3,4-d]pyrimidin-2-yl)-pyridin-2-yl]-(2,3,6-trifluoro-phenyl)-amine]",< 100
9,"COc1cncc2nc(-c3ccnc(Nc4cccnc4F)c3)nc(N3CCNCC3)c12 [Example 450, (2-Fluoro-pyridin-3-yl)-[4-(5-methoxy-4-piperazin-1-yl-pyrido[3,4-d]pyrimidin-2-yl)-pyridin-2-yl]-amine]",< 100
10,"COc1cncc2nc(-c3ccnc(Nc4cccc(C)c4F)c3)nc(N3CCNCC3)c12 [Example 451, (2-Fluoro-3-methyl-phenyl)-[4-(5-methoxy-4-piperazin-1-yl-pyrido[3,4-d]pyrimidin-2-yl)-pyridin-2-yl]-amine]",< 100
11,"COc1cncc2nc(-c3ccnc(Nc4cc(F)c(F)cc4F)c3)nc(N3CCNCC3)c12 [Example 455, [4-(5-Methoxy-4-piperazin-1-yl-pyrido[3,4-d]pyrimidin-2-yl)-pyridin-2-yl]-(2,4,5-trifluoro-phenyl)-amine]",100 to 1000

# The remaining lines, values ahead:
row,IC50 [nM],Compound
1,1000 to 10000,"COc1cncc2nc(-c3ccnc(Nc4ccccc4)c3)nc(N3CCC[C@@H](O)C3)c12 [Example 428, (R)-1-[5-Methoxy-2-(2-phenylamino-pyridin-4-yl)-pyrido[3,4-d]pyrimidin-4-yl]-piperidin-3-ol]"
2,100 to 1000,"COc1cncc2nc(-c3ccnc(Nc4ccccc4)c3)nc(NC[C@@H]3CCCN3)c12 [Example 430, [5-Methoxy-2-(2-phenylamino-pyridin-4-yl)-pyrido[3,4-d]pyrimidin-4-yl]-(S)-1-pyrrolidin-2-ylmethyl-amine]"
3,1000 to 10000,"COc1cncc2nc(-c3ccnc(Nc4ccccc4)c3)nc(N3CC(CO)C3)c12 [Example 433, {1-[5-Methoxy-2-(2-phenylamino-pyridin-4-yl)-pyrido[3,4-d]pyrimidin-4-yl]-azetidin-3-yl}-methanol]"
4,100 to 1000,"COc1cncc2nc(-c3ccnc(Nc4ccccc4)c3)nc(N3CCN4C(=O)OC[C@H]4C3)c12 [Example 435, (R)-7-[5-Methoxy-2-(2-phenylamino-pyridin-4-yl)-pyrido[3,4-d]pyrimidin-4-yl]-hexahydro-oxazolo[3,4-a]pyrazin-3-one]"
5,1000 to 10000,"COc1cncc2nc(-c3ccnc(Nc4ccccc4)c3)nc(N3CCNC(=O)C3)c12 [Example 438, 4-[5-Methoxy-2-(2-phenylamino-pyridin-4-yl)-pyrido[3,4-d]pyrimidin-4-yl]-piperazin-2-one]"
6,< 100,"COc1cncc2nc(-c3ccnc(Nc4cc(F)ccc4F)c3)nc(N3CCNCC3)c12 [Example 440, (2,5-Difluoro-phenyl)-[4-(5-methoxy-4-piperazin-1-yl-pyrido[3,4-d]pyrimidin-2-yl)-pyridin-2-yl]-amine]"
7,< 100,"COc1cncc2nc(-c3ccnc(Nc4c(F)cccc4F)c3)nc(N3CCN[C@@H](CO)C3)c12 [Example 442, ((R)-4-{2-[2-(2,6-Difluoro-phenylamino)-pyridin-4-yl]-5-methoxy-pyrido[3,4-d]pyrimidin-4-yl}-piperazin-2-yl)-methanol]"
8,100 to 1000,"COc1cncc2nc(-c3ccnc(Nc4ccccc4C(F)(F)F)c3)nc(N3CCNCC3)c12 [Example 445, [4-(5-Methoxy-4-piperazin-1-yl-pyrido[3,4-d]pyrimidin-2-yl)-pyridin-2-yl]-(2-trifluoromethyl-phenyl)-amine]"
9,100 to 1000,"COc1cncc2nc(-c3ccnc(Nc4cccc(C(F)(F)F)c4)c3)nc(N3CCNCC3)c12 [Example 446, [4-(5-Methoxy-4-piperazin-1-yl-pyrido[3,4-d]pyrimidin-2-yl)-pyridin-2-yl]-(3-trifluoromethyl-phenyl)-amine]"
10,< 100,"COc1cncc2nc(-c3ccnc(Nc4cccc(F)n4)c3)nc(N3CCNCC3)c12 [Example 447, (6-Fluoro-pyridin-2-yl)-[4-(5-methoxy-4-piperazin-1-yl-pyrido[3,4-d]pyrimidin-2-yl)-pyridin-2-yl]-amine]"
11,< 100,"COc1cncc2nc(-c3ccnc(Nc4cccc(C(F)(F)F)n4)c3)nc(N3CCNCC3)c12 [Example 449, [4-(5-Methoxy-4-piperazin-1-yl-pyrido[3,4-d]pyrimidin-2-yl)-pyridin-2-yl]-(6-trifluoromethyl-pyridin-2-yl)-amine]"
12,100 to 1000,"COc1cncc2nc(-c3ccnc(Nc4cccc(C(F)(F)F)c4F)c3)nc(N3CCNCC3)c12 [Example 452, (2-Fluoro-3-trifluoromethyl-phenyl)-[4-(5-methoxy-4-piperazin-1-yl-pyrido[3,4-d]pyrimidin-2-yl)-pyridin-2-yl]-amine]"
13,< 100,"COc1cncc2nc(-c3ccnc(Nc4ccc(F)cc4F)c3)nc(N3CCNCC3)c12 [Example 453, (2,4-Difluoro-phenyl)-[4-(5-methoxy-4-piperazin-1-yl-pyrido[3,4-d]pyrimidin-2-yl)-pyridin-2-yl]-amine]"
14,100 to 1000,"COc1cncc2nc(-c3ccnc(Nc4ccc(F)c(F)c4F)c3)nc(N3CCNCC3)c12 [Example 454, [4-(5-Methoxy-4-piperazin-1-yl-pyrido[3,4-d]pyrimidin-2-yl)-pyridin-2-yl]-(2,3,4-trifluoro-phenyl)-amine]"
